± gives the standard deviation of the averaged measurements.
Tested on: KHOS-240S
Assay: relative viability vs DMSO control (72 h) (fraction); higher = more viable cells
In short: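 Sarcoma cell lines were plated in 384 wells to reach 80–90% confluence, treated after 24 h with 2.5 µl of serially diluted compound and held 72 h at 37 °C, 5% CO2. Relative viability was taken as percent growth from ATPLite readings, averaged over up to triplicate wells. The values were rescaled so that 1 marks full and 0 marks none.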

`CC(C)N1CCN(Cc2cnc(-c3cc(-c4cccc5[nH]ccc45)cc4[nH]ncc34)o2)CC1` [Nemiralisib] showed a relative viability (0.00017 µM) of 0.971 ± 0.016, a relative viability (0.00051 µM) of 0.972 ± 0.027 and a relative viability (0.00152 µM) of 0.98 ± 0.026. The relative viability (0.00457 µM) was 0.971 ± 0.024, the relative viability (0.01372 µM) was 0.966 ± 0.017 and the relative viability (0.04115 µM) was 0.939 ± 0.018. It also gave a relative viability (0.1235 µM) of 0.956 ± 0.027, a relative viability (0.3704 µM) of 0.927 ± 0.035 and a relative viability (1.111 µM) of 0.93 ± 0.041. For the same molecule, the relative viability (3.333 µM) was 0.759 ± 0.018 and the relative viability (10 µM) was 0.455 ± 0.026.

With `C=CC(=O)N1CCC[C@@H](n2nc(-c3ccc(Oc4ccccc4)cc3)c3c(N)ncnc32)C1` [Ibrutinib] the relative viability (0.00017 µM) was 1.03 ± 0.038, the relative viability (0.00051 µM) was 1.08 ± 0.064 and the relative viability (0.00152 µM) was 1.09 ± 0.078. The relative viability (0.00457 µM) was 1.09 ± 0.079, the relative viability (0.01372 µM) was 1.05 ± 0.054 and the relative viability (0.04115 µM) was 1.08 ± 0.053. The relative viability (0.1235 µM) was 1.05 ± 0.1, the relative viability (0.3704 µM) was 1.05 ± 0.081 and the relative viability (1.111 µM) was 0.979 ± 0.045. It also gave a relative viability (3.333 µM) of 0.884 ± 0.035 and a relative viability (10 µM) of 0.587 ± 0.015.

Work on `CN1CCC(COc2cnc(-c3cccc(Cn4nc(-c5cccc(C#N)c5)ccc4=O)c3)nc2)CC1` [Tepotinib] yielded a relative viability (0.00017 µM) of 1.09 ± 0.051, a relative viability (0.00051 µM) of 1.09 ± 0.014 and a relative viability (0.00152 µM) of 1.1 ± 0.043. For the same molecule, the relative viability (0.00457 µM) was 1.09 ± 0.035, the relative viability (0.01372 µM) was 1.04 ± 0.019 and the relative viability (0.04115 µM) was 1.08 ± 0.045. The relative viability (0.1235 µM) was 1.04 ± 0.045, the relative viability (0.3704 µM) was 1.02 ± 0.031 and the relative viability (1.111 µM) was 1 ± 0.017. For the same molecule, the relative viability (3.333 µM) was 0.94 ± 0.095 and the relative viability (10 µM) was 0.593 ± 0.022.

With `C[C@@H]1CCN(C(=O)CC#N)C[C@@H]1N(C)c1ncnc2[nH]ccc12` [Tofacitinib] the relative viability (0.00017 µM) was 1.08 ± 0.068, the relative viability (0.00051 µM) was 1.05 ± 0.038 and the relative viability (0.00152 µM) was 1.08 ± 0.062. The relative viability (0.00457 µM) was 1.09 ± 0.069, the relative viability (0.01372 µM) was 1.05 ± 0.031 and the relative viability (0.04115 µM) was 1.05 ± 0.034. It also gave a relative viability (0.1235 µM) of 1.06 ± 0.08, a relative viability (0.3704 µM) of 1.03 ± 0.043 and a relative viability (1.111 µM) of 1.01 ± 0.076. For the same molecule, the relative viability (3.333 µM) was 0.977 ± 0.021 and the relative viability (10 µM) was 0.853 ± 0.075.

Molecule `Cc1cc(Nc2ncnc3ccc(NC4=NC(C)(C)CO4)cc23)ccc1Oc1ccn2ncnc2c1` [Tucatinib] has a relative viability (0.00017 µM) of 1.06 ± 0.019, a relative viability (0.00051 µM) of 1.11 ± 0.022 and a relative viability (0.00152 µM) of 1.09 ± 0.036. The relative viability (0.00457 µM) was 1.07 ± 0.031, the relative viability (0.01372 µM) was 1.075 ± 0.0081 and the relative viability (0.04115 µM) was 1.09 ± 0.03. It also gave a relative viability (0.1235 µM) of 1.08 ± 0.025, a relative viability (0.3704 µM) of 1.07 ± 0.027 and a relative viability (1.111 µM) of 1.05 ± 0.054. For the same molecule, the relative viability (3.333 µM) was 1.01 ± 0.022 and the relative viability (10 µM) was 0.953 ± 0.051.

For `O=C(Nc1cnn2ccc(N3CCC[C@@H]3c3cc(F)ccc3F)nc12)N1CC[C@H](O)C1` [Larotrectinib], the relative viability (0.00017 µM) was 1.1 ± 0.045, the relative viability (0.00051 µM) was 1.07 ± 0.064 and the relative viability (0.00152 µM) was 1.1 ± 0.091. It also gave a relative viability (0.00457 µM) of 1.07 ± 0.093, a relative viability (0.01372 µM) of 1.05 ± 0.066 and a relative viability (0.04115 µM) of 1.05 ± 0.02. For the same molecule, the relative viability (0.1235 µM) was 1.09 ± 0.066, the relative viability (0.3704 µM) was 1.09 ± 0.068 and the relative viability (1.111 µM) was 1.06 ± 0.06. For the same molecule, the relative viability (3.333 µM) was 1.07 ± 0.079 and the relative viability (10 µM) was 1.05 ± 0.082.

In the case of `C=CC(=O)N1CCC([C@@H]2CCNc3c(C(N)=O)c(-c4ccc(Oc5ccccc5)cc4)nn32)CC1` [Zanubrutinib], the relative viability (0.00017 µM) is reported as 0.952 ± 0.026, the relative viability (0.00051 µM) is reported as 0.946 ± 0.032 and the relative viability (0.00152 µM) is reported as 0.962 ± 0.02. The relative viability (0.00457 µM) was 0.9655 ± 0.007, the relative viability (0.01372 µM) was 0.936 ± 0.043 and the relative viability (0.04115 µM) was 0.962 ± 0.021. It also gave a relative viability (0.1235 µM) of 0.957 ± 0.022, a relative viability (0.3704 µM) of 0.935 ± 0.037 and a relative viability (1.111 µM) of 0.901 ± 0.047. For the same molecule, the relative viability (3.333 µM) was 0.85 ± 0.065 and the relative viability (10 µM) was 0.839 ± 0.019.

In the case of `CO[C@H]1C[C@@H]2CC[C@@H](C)[C@@](O)(O2)C(=O)C(=O)N2CCCC[C@H]2C(=O)O[C@H]([C@H](C)C[C@@H]2CC[C@@H](OP(C)(C)=O)[C@H](OC)C2)CC(=O)[C@H](C)/C=C(\C)[C@@H](O)[C@@H](OC)C(=O)[C@H](C)C[C@H](C)/C=C/C=C/C=C/1C` [Ridaforolimus], the relative viability (0.00017 µM) is reported as 1.03 ± 0.012, the relative viability (0.00051 µM) is reported as 1.03 ± 0.027 and the relative viability (0.00152 µM) is reported as 0.987 ± 0.027. The relative viability (0.00457 µM) was 0.932 ± 0.015, the relative viability (0.01372 µM) was 0.919 ± 0.026 and the relative viability (0.04115 µM) was 0.898 ± 0.022. For the same molecule, the relative viability (0.1235 µM) was 0.878 ± 0.014, the relative viability (0.3704 µM) was 0.851 ± 0.016 and the relative viability (1.111 µM) was 0.826 ± 0.032. The relative viability (3.333 µM) was 0.777 ± 0.018 and the relative viability (10 µM) was 0.741 ± 0.017.

In the case of `COc1cc2/c(=N/c3ccc(Br)cc3F)nc[nH]c2cc1OCC1CCN(C)CC1` [Vandetanib], the relative viability (0.00017 µM) is reported as 1.03 ± 0.078, the relative viability (0.00051 µM) is reported as 1.03 ± 0.048 and the relative viability (0.00152 µM) is reported as 1.02 ± 0.042. The relative viability (0.00457 µM) was 1.05 ± 0.048, the relative viability (0.01372 µM) was 1.05 ± 0.06 and the relative viability (0.04115 µM) was 1.05 ± 0.045. For the same molecule, the relative viability (0.1235 µM) was 0.99 ± 0.022, the relative viability (0.3704 µM) was 1.01 ± 0.026 and the relative viability (1.111 µM) was 0.908 ± 0.014. It also gave a relative viability (3.333 µM) of 0.4145 ± 0.0025 and a relative viability (10 µM) of 0.0298 ± 0.0027.

Work on `CCc1cc2c(cc1N1CCC(N3CCOCC3)CC1)C(C)(C)c1[nH]c3cc(C#N)ccc3c1C2=O` [Alectinib] yielded a relative viability (0.00017 µM) of 1.06 ± 0.048, a relative viability (0.00051 µM) of 1.09 ± 0.075 and a relative viability (0.00152 µM) of 1.09 ± 0.064. The relative viability (0.00457 µM) was 1.08 ± 0.066, the relative viability (0.01372 µM) was 1.06 ± 0.072 and the relative viability (0.04115 µM) was 1.07 ± 0.069. It also gave a relative viability (0.1235 µM) of 1.05 ± 0.074, a relative viability (0.3704 µM) of 0.998 ± 0.079 and a relative viability (1.111 µM) of 0.996 ± 0.063. It also gave a relative viability (3.333 µM) of 0.984 ± 0.054 and a relative viability (10 µM) of 0.971 ± 0.073.

`Cc1nc(-c2cn3c(n2)-c2ccc(-c4cnn(C(C)(C)C(N)=O)c4)cc2OCC3)n(C(C)C)n1` [Taselisib] showed a relative viability (0.00017 µM) of 1.03 ± 0.013, a relative viability (0.00051 µM) of 1.03 ± 0.024 and a relative viability (0.00152 µM) of 1.01 ± 0.031. For the same molecule, the relative viability (0.00457 µM) was 1.02 ± 0.049, the relative viability (0.01372 µM) was 0.952 ± 0.029 and the relative viability (0.04115 µM) was 0.911 ± 0.012. The relative viability (0.1235 µM) was 0.856 ± 0.018, the relative viability (0.3704 µM) was 0.793 ± 0.041 and the relative viability (1.111 µM) was 0.725 ± 0.037. The relative viability (3.333 µM) was 0.684 ± 0.049 and the relative viability (10 µM) was 0.566 ± 0.017.

`O=C(Cc1ccc(-c2ccc(OCCN3CCOCC3)cc2)cn1)NCc1ccccc1` [KX2-391] showed a relative viability (0.00017 µM) of 1.07 ± 0.025, a relative viability (0.00051 µM) of 1.1 ± 0.037 and a relative viability (0.00152 µM) of 1.1 ± 0.02. It also gave a relative viability (0.00457 µM) of 1.07 ± 0.035, a relative viability (0.01372 µM) of 1.06 ± 0.049 and a relative viability (0.04115 µM) of 0.896 ± 0.022. It also gave a relative viability (0.1235 µM) of 0.26 ± 0.013, a relative viability (0.3704 µM) of 0.221 ± 0.014 and a relative viability (1.111 µM) of 0.161 ± 0.011. The relative viability (3.333 µM) was 0.142 ± 0.02 and the relative viability (10 µM) was 0.134 ± 0.015.
